Our source for the T/C values is PubChem BioAssay AID330 (DTP/NCI, 2004).

“And” between values parts separate entries of the source, which are not always exact repeats. Equal values may be shown once. Inconclusive results and toxic doses are left out. Peptide text beside a SMILES is read from it. * marks the point of attachment. Cbz = O=C(OCc1ccccc1)*; Bn = c1ccc(C*)cc1; NHNH2 = NN*

This assay relates to P388 leukemia ip, CD2F1 mice, survival T/C. Briefly: NCI In Vivo Anticancer Drug Screen. Data for tumor model P388 Leukemia (intraperitoneal) in CD2F1 (CDF1) mice. As to conditions: endpoint: median survival time, higher = longer survival. Put shortly: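 Mice carrying the transplanted tumor received test compound or vehicle. Survival was recorded in each group, and the value is the treated-group measurement divided by that of the vehicle-treated control group.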

The mark [1] stands for this setting: dose: 50.0 mg/kg/injection, schedule: Q01DX009 (ip), vehicle: Klucel (hydroxypropylcellulose) (HPC).
Setting [2] is: dose: 100.0 mg/kg/injection, schedule: Q01DX009 (ip), vehicle: Klucel (hydroxypropylcellulose) (HPC).
The mark [3] stands for this setting: dose: 200.0 mg/kg/injection, schedule: Q01DX009 (ip), vehicle: Klucel (hydroxypropylcellulose) (HPC).
Where [4] appears, read: dose: 50.0 mg/kg/injection, schedule: Q01DX009 (ip), vehicle: saline with Tween-80.
Setting [5] is: dose: 100.0 mg/kg/injection, schedule: Q01DX009 (ip), vehicle: saline with Tween-80.
Setting [6] is: dose: 50.0 mg/kg/injection, schedule: Q01DX009 (ip), vehicle: saline.
Setting [7] is: dose: 100.0 mg/kg/injection, schedule: Q01DX009 (ip), vehicle: saline.
Setting [8] is: dose: 200.0 mg/kg/injection, schedule: Q01DX009 (ip), vehicle: saline.
Setting [9] is: dose: 200.0 mg/kg/injection, schedule: Q01DX009 (ip), vehicle: suspension in saline.
Setting [10] is: dose: 60.0 mg/kg/injection, schedule: Q01DX005 (ip), vehicle: saline with Tween-80.
The mark [11] stands for this setting: dose: 120.0 mg/kg/injection, schedule: Q01DX005 (ip), vehicle: saline with Tween-80.
[12] abbreviates: dose: 240.0 mg/kg/injection, schedule: Q01DX005 (ip), vehicle: saline with Tween-80.

For the compound `CCCCCCCC1C(=O)OC2CC3C(C)=CC(=O)C(O)C3(C)C3C4(O)OCC23C1C(C)C4O` (stereo not given), the T/C was 107 % of control (dose: 1.25 mg/kg/injection, schedule: Q01DX005 (ip), vehicle: Klucel (hydroxypropylcellulose) (HPC)); 108 % of control (dose: 2.5 mg/kg/injection, schedule: Q01DX005 (ip), vehicle: Klucel (hydroxypropylcellulose) (HPC)); 107 % of control and 116 % of control (dose: 5.0 mg/kg/injection, schedule: Q01DX005 (ip), vehicle: Klucel (hydroxypropylcellulose) (HPC)); 117 % of control and 124 % of control (dose: 10.0 mg/kg/injection, schedule: Q01DX005 (ip), vehicle: Klucel (hydroxypropylcellulose) (HPC)).

On to `CCC(NC(C)C)C(O)c1ccc(O)c2[nH]c(=O)ccc12` (stereo not given), for which the T/C by setting is: under setting [1], 104 % of control; under setting [2], 99 % of control; under setting [3], 96 % of control.

`CC[As](CCO)SC1CC(OC(=O)c2ccccc2)C(OC(=O)c2ccccc2)C(COC(=O)c2ccccc2)O1` (stereo not given): the T/C (dose: 25.0 mg/kg/injection, schedule: Q01DX009 (ip), vehicle: saline with Tween-80) is 110 % of control; the T/C (dose: 50.0 mg/kg/injection, schedule: Q01DX009 (ip), vehicle: saline + alcohol) is 124 % of control; the T/C under setting [4] was 96 % of control; the T/C under setting [5] is 110 % of control.

`CC1(C)SC(=O)C(=O)S1`: the T/C was 103 % of control (dose: 100.0 mg/kg/injection, schedule: Q04DX003 (ip), vehicle: saline) and 93 % of control (dose: 200.0 mg/kg/injection, schedule: Q04DX003 (ip), vehicle: saline).

Turning to `S=C(Nc1ccc(N=Nc2ccccc2)cc1)SCc1ccc(Cl)cc1`, the T/C reads like this: under setting [6], 97 % of control; under setting [7], 103 % of control; under setting [8], 100 % of control; under setting [9], 93 % of control.

Consider `CO[C@H]1[C@H]2OC(C)(C)O[C@H]2O[C@H]1/C=C1\CC(=O)NC1=O`, for which the T/C is 111 % of control under setting [6]; 96 % of control (dose: 50.0 mg/kg/injection, schedule: Q01DX009 (ip), vehicle: suspension in saline); 116 % of control under setting [7]; 104 % of control (dose: 100.0 mg/kg/injection, schedule: Q01DX009 (ip), vehicle: suspension in saline); 110 % of control under setting [9].

As to `COc1cc2c(c(OC)c1OC)-c1ccc(OC)c(=O)cc1[C@@H](NC(=O)CCl)CC2`, the T/C by setting is: (dose: 0.06 mg/kg/injection, schedule: Q01DX009 (ip), vehicle: Klucel (hydroxypropylcellulose) (HPC)) 114 % of control; (dose: 0.12 mg/kg/injection, schedule: Q01DX009 (ip), vehicle: saline with Tween-80) 166 % of control; (dose: 0.13 mg/kg/injection, schedule: Q01DX009 (ip), vehicle: saline with Tween-80) 156 % of control; (dose: 0.15 mg/kg/injection, schedule: Q01DX009 (ip), vehicle: saline) 103 % of control; (dose: 0.25 mg/kg/injection, schedule: Q01DX009 (ip), vehicle: Klucel (hydroxypropylcellulose) (HPC)) 115 % of control; (dose: 0.25 mg/kg/injection, schedule: Q01DX009 (ip), vehicle: saline with Tween-80) 153 % of control and 173 % of control. Further, the T/C (dose: 0.31 mg/kg/injection, schedule: Q01DX009 (ip), vehicle: saline) is 122 % of control; the T/C (dose: 0.5 mg/kg/injection, schedule: Q01DX009 (ip), vehicle: saline with Tween-80) is 93 % of control; the T/C (dose: 1.25 mg/kg/injection, schedule: Q01DX009 (ip), vehicle: saline) is 167 % of control.

On to `O=C1/C(=C/c2ccc3c(c2)OCO3)C2CCC(N2)/C1=C\c1ccc2c(c1)OCO2`, for which the T/C reads like this: (dose: 50.0 mg/kg/injection, schedule: Q01DX001 (ip), vehicle: Klucel (hydroxypropylcellulose) (HPC)) 103 % of control; (dose: 100.0 mg/kg/injection, schedule: Q01DX001 (ip), vehicle: Klucel (hydroxypropylcellulose) (HPC)) 96 % of control; (dose: 200.0 mg/kg/injection, schedule: Q01DX001 (ip), vehicle: Klucel (hydroxypropylcellulose) (HPC)) 96 % of control.

Consider `NNC(=O)C(Cc1ccc(O)cc1)NC(=O)C(CSCc1ccccc1)NC(=O)OCc1ccccc1` (stereo not given) (Cbz-Cys(Bn)-Tyr-NHNH2; configuration not given here), for which the T/C runs as follows: under setting [1], 93 % of control; under setting [2], 91 % of control; under setting [3], 89 % of control.

For the compound `CC(=O)CC(C)O` (stereo not given), the T/C was 99 % of control under setting [6], 89 % of control under setting [7] and 92 % of control under setting [8].

As for `CC(=O)Oc1ccccc1C(=O)O`, the T/C is 90 % of control (dose: 31.3 mg/kg/injection, schedule: Q01DX009 (ip), vehicle: saline with Tween-80); 99 % of control under setting [4]; 100 % of control (dose: 62.5 mg/kg/injection, schedule: Q01DX009 (ip), vehicle: saline with Tween-80); 107 % of control under setting [5]; 104 % of control (dose: 125.0 mg/kg/injection, schedule: Q01DX009 (ip), vehicle: saline with Tween-80); 95 % of control (dose: 200.0 mg/kg/injection, schedule: Q01DX009 (ip), vehicle: saline with Tween-80).

With `Clc1cccc2c(SCCCCCSc3c4ccccc4nc4c(Cl)cccc34)c3ccccc3nc12`, the T/C runs as follows: (dose: 60.0 mg/kg/injection, schedule: Q01DX005 (ip), vehicle: Klucel (hydroxypropylcellulose) (HPC)) 93 % of control; (dose: 120.0 mg/kg/injection, schedule: Q01DX005 (ip), vehicle: Klucel (hydroxypropylcellulose) (HPC)) 93 % of control; (dose: 240.0 mg/kg/injection, schedule: Q01DX005 (ip), vehicle: Klucel (hydroxypropylcellulose) (HPC)) 87 % of control.

Regarding `COc1ccc(C2C3=C(CCCC3=O)OC3=C2C(=O)CCC3)cc1`, the T/C by setting is: under setting [10], 96 % of control; under setting [11], 99 % of control; under setting [12], 100 % of control.

Consider `C/C(=N\NC(=S)Nc1ccc(N(C)C)cc1)c1ccccn1`, for which the T/C is, setting by setting: under setting [4], 118 % of control; under setting [5], 105 % of control.

As for `CCOC(=O)Nc1cc2c(c(N)n1)N=C(c1ccc3ccccc3c1)CN2`, the T/C by setting is: (dose: 5.0 mg/kg/injection, schedule: Q01DX005 (ip), vehicle: saline with Tween-80) 153 % of control; (dose: 7.5 mg/kg/injection, schedule: Q01DX005 (ip), vehicle: saline with Tween-80) 165 % of control; (dose: 10.0 mg/kg/injection, schedule: Q01DX005 (ip), vehicle: saline with Tween-80) 166 % of control and 168 % of control.

`C=C(C)OC1NC(=O)Oc2ccccc21` (stereo not given): the T/C was 98 % of control under setting [10], 109 % of control under setting [11] and 100 % of control under setting [12].

Consider `S=C1N(c2ccc(Cl)cc2)C2=C(N=Nc3cc(Cl)ccc3Cl)C(=Nc3ccccc3S2)N1c1ccccn1`, for which the T/C is, setting by setting: (dose: 15.0 mg/kg/injection, schedule: Q01DX005 (ip), vehicle: saline with Tween-80) 100 % of control; (dose: 30.0 mg/kg/injection, schedule: Q01DX005 (ip), vehicle: saline with Tween-80) 110 % of control; under setting [10], 106 % of control and 110 % of control.

Consider `COC(=O)c1cc(CC[N+](C)(C)Cc2ccccc2)c2ccccn12`, for which the T/C is, setting by setting: (dose: 6.25 mg/kg/injection, schedule: Q04DX002 (ip), vehicle: saline) 104 % of control; (dose: 12.5 mg/kg/injection, schedule: Q04DX002 (ip), vehicle: saline) 96 % of control; (dose: 25.0 mg/kg/injection, schedule: Q04DX002 (ip), vehicle: saline) 106 % of control.

In the case of `CC1OC(OCC2OC(Oc3c(-c4ccc(O)c(O)c4)oc4cc(O)cc(O)c4c3=O)C(O)C(O)C2O)C(O)C(O)C1O` (stereo not given), the T/C (dose: 6.25 mg/kg/injection, schedule: Q01DX005 (ip), vehicle: saline with Tween-80) was 95 % of control; the T/C (dose: 12.5 mg/kg/injection, schedule: Q01DX005 (ip), vehicle: saline with Tween-80) is 94 % of control; the T/C (dose: 25.0 mg/kg/injection, schedule: Q01DX005 (ip), vehicle: saline with Tween-80) was 94 % of control.

As for `N[N+]1(CCS(N)(=O)=O)CCOCC1`, the T/C is 110 % of control under setting [6], 91 % of control under setting [7] and 96 % of control under setting [8].

Take `CC(=O)Nc1ccc2cc(-c3ccc(Cl)cc3)c3nnnn3c2n1`: the T/C (dose: 50.0 mg/kg/injection, schedule: Q01DX005 (ip), vehicle: saline with Tween-80) is 96 % of control; the T/C (dose: 100.0 mg/kg/injection, schedule: Q01DX005 (ip), vehicle: saline with Tween-80) is 94 % of control; the T/C (dose: 200.0 mg/kg/injection, schedule: Q01DX005 (ip), vehicle: saline with Tween-80) was 93 % of control.
